Experimental findings from patent US20260265329A1, “POLYPEPTIDE AND DERIVATIVE THEREOF, COMPOSITION, AND USE THEREOF” (HANGZHOU SCIWIND BIOSCIENCES CO., LTD., priority 2023, published 2026) are described below.

The nature of data set [1]: Heat accelerated stability assay, 40° C., detection on 7 d and 28 d. The format is physicochemical. On the procedure: The derivatives (1 mg/mL) were mixed with sodium dihydrogen phosphate (1.42 mg/mL) and dissolved in ultrapure water. After adjusting pH to about 7.4 with hydrochloric acid/sodium hydroxide, the solution was filtered into a sterilized vial in a clean bench using a 0.22 μm sterile filter. The vial was then capped and placed into the stability test chamber at 40° C. Detections were made on Days 7 (7d) and 28 (28d), and during the assay, changes in the characteristics and properties of the polypeptides were observed and recorded. The sample was then centrifuged for 3 min at 10000 rpm at 4° C., and the supernatant was transferred to a liquid phase sample vial for detecting the concentration and purity of the polypeptides using liquid phase chromatography described as below.
Conditions of the reversed phase chromatography Flow rate: 1.0 mL/min; Autosampler temperature: 15° C.; Column temperature: 25° C.; Detection wavelength: 214 nm; Mobile phase A: 100% H2O+0.05% TFA; Mobile phase B: 100% ACN; and Gradient of elution listed in Table 4: […]

The target in another data set is T1, human amylin receptors (Homo sapiens, UniProt O60896+P30988).
T1 construct: host or cells: CHO-K1/Ga15/AMY3 cells, further stably transfected with a CRE-luciferase plasmid
T1 sequence (P30988 25-474): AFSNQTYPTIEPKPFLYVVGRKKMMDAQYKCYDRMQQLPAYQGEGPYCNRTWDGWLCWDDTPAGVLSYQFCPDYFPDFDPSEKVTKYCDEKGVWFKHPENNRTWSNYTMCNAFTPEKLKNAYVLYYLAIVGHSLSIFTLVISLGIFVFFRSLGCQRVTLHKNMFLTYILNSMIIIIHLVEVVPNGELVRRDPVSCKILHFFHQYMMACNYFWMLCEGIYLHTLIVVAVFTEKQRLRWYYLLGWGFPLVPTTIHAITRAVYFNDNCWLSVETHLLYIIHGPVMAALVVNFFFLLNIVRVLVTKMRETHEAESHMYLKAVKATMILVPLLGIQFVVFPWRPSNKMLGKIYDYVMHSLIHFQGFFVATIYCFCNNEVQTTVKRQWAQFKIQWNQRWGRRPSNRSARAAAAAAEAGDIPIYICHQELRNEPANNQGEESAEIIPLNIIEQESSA
T1 sequence (O60896 24-148 partner): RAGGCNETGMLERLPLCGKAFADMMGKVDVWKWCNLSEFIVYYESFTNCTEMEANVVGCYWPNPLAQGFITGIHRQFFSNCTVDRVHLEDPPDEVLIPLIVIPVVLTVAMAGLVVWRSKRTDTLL
The data set can be described thus: Luciferase assay in stably transfected amylin receptor/CRE-luc CHO cell line. The format is cell-based.

Data set [2] deals with T2, human amylin receptor on CHO-K1/Ga15/AMY3 cells (amylin receptor/CRE-luc cell line) (human) (UniProt P30988).
T2 sequence (looked up) 1: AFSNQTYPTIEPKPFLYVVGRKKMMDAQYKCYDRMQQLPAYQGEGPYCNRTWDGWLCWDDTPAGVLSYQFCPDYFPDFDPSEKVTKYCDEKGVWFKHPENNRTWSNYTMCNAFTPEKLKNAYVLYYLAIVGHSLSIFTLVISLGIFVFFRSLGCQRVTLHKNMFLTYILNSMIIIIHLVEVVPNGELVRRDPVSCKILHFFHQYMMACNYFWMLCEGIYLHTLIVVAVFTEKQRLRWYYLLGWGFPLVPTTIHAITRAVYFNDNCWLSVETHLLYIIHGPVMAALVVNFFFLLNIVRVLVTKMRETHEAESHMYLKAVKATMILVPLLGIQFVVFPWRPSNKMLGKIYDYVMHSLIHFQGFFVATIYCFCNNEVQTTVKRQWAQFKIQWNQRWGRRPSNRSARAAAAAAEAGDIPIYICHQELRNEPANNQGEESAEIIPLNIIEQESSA
T2 sequence (looked up) 2: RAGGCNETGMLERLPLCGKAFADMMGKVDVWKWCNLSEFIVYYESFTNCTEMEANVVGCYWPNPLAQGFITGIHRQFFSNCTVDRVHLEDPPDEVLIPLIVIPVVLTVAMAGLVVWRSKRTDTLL
The data set can be described thus: cell-based or functional assay.

Starred links: 1 amine or outer side, 2 acyl side, 3 side chain; linkers in the order of their positions; H or OH if unused. Non-standard residues stand in square brackets, D forms with d. Residues, ends and D or L forms follow the SMILES beside them. *: point of attachment. C20 diacid = O=C(O)CCCCCCCCCCCCCCCCCCC(=O)*; γGlu = O=C(O)[C@H](CCC(=O)[*:2])N[*:1]; Hyp = O=C(O)[C@@H]1C[C@@H](O)CN1

For `CC[C@H](C)[C@H](NC(=O)[C@H](CC(=O)O)NC(=O)[C@H](CCCNC(=N)N)NC(=O)[C@H](CC(=O)O)NC(=O)[C@H](CCCNC(=N)N)NC(=O)[C@H](CC(=O)O)NC(=O)[C@@H](NC(=O)[C@H](Cc1ccccc1)NC(=O)[C@H](Cc1c[nH]cn1)NC(=O)[C@H](CCCNC(=N)N)NC(=O)[C@H](CC(C)C)NC(=O)[C@H](Cc1ccccc1)NC(=O)[C@H](CC(=O)O)NC(=O)[C@H](C)NC(=O)[C@H](CC(C)C)NC(=O)[C@H](CCCNC(=N)N)NC(=O)[C@H](CCC(N)=O)NC(=O)[C@@H](NC(=O)[C@@H](NC(=O)[C@H](C)NC(=O)[C@@H](NC(=O)[C@H](CO)NC(=O)[C@H](CC(C)C)NC(=O)[C@H](CCC(N)=O)NC(=O)[C@H](CO)NC(=O)[C@H](C)NC(=O)CC[C@H](NC(=O)CCCCCCCCCCCCCCCCCCC(=O)O)C(=O)O)[C@@H](C)O)C(C)C)[C@@H](C)O)[C@@H](C)O)C(=O)N[C@@H](CC(C)C)C(=O)N1CCC[C@H]1C(=O)N1CCC[C@H]1C(=O)N[C@H](C(=O)N[C@@H](CC(N)=O)C(=O)N[C@H](C(=O)NCC(=O)N[C@@H](CO)C(=O)N[C@@H](CC(N)=O)C(=O)N[C@H](C(=O)N1CCC[C@H]1C(N)=O)[C@@H](C)O)C(C)C)[C@@H](C)O` [M8] ({C20 diacid-γGlu}-ASQLSTAVTQRLADFLRHFTDRDRDILPPTNVGSNTP-NH2), the “Purity from the reversed phase chromatography-214 nm, 0 d” value in data set [1] (1 mg/mL, pH about 7.4, 40° C., 0 d) is 86.93. For the same molecule, the “Purity from the reversed phase chromatography-214 nm, 7 d” value in data set [1] (1 mg/mL, pH about 7.4, 40° C., 7 d) is listed as 86.57. In data set [1] (1 mg/mL, pH about 7.4, 40° C., 28 d), the “Purity from the reversed phase chromatography-214 nm, 28 d” value stood at 87.31. Further, the “Change (7 d − 0 d)” value in data set [1] (purity on 7 d − purity on 0 d, 40° C., pH about 7.4) is −0.36. In addition, the “Change (28 d − 0 d)” value in data set [1] (purity on 28 d − purity on 0 d, 40° C., pH about 7.4) was 0.38. The Relative activity on human amylin receptors (EC50 ratio of Cagrilintide to the compound, Cagrilintide 100%) turned out to be 53%. The midpoint of the response on human amylin receptors (amylin receptor/CRE-luc CHO cells, 24 hours incubation, luminescence), the EC50, lay at 0.049 nM.

B1: M26 (peptide)
peptide: {C20 diacid}-EASQLSTAATQRLADFLRHSSNNLKPILPPTNVGSNT[Hyp]-NH2
SMILES: CC[C@H](C)[C@H](NC(=O)[C@@H]1CCCN1C(=O)[C@H](CCCCN)NC(=O)[C@H](CC(C)C)NC(=O)[C@H](CC(N)=O)NC(=O)[C@H](CC(N)=O)NC(=O)[C@H](CO)NC(=O)[C@H](CO)NC(=O)[C@H](Cc1c[nH]cn1)NC(=O)[C@H](CCCNC(=N)N)NC(=O)[C@H](CC(C)C)NC(=O)[C@H](Cc1ccccc1)NC(=O)[C@H](CC(=O)O)NC(=O)[C@H](C)NC(=O)[C@H](CC(C)C)NC(=O)[C@H](CCCNC(=N)N)NC(=O)[C@H](CCC(N)=O)NC(=O)[C@@H](NC(=O)[C@H](C)NC(=O)[C@H](C)NC(=O)[C@@H](NC(=O)[C@H](CO)NC(=O)[C@H](CC(C)C)NC(=O)[C@H](CCC(N)=O)NC(=O)[C@H](CO)NC(=O)[C@H](C)NC(=O)[C@H](CCC(=O)O)NC(=O)CCCCCCCCCCCCCCCCCCC(=O)O)[C@@H](C)O)[C@@H](C)O)C(=O)N[C@@H](CC(C)C)C(=O)N1CCC[C@H]1C(=O)N1CCC[C@H]1C(=O)N[C@H](C(=O)N[C@@H](CC(N)=O)C(=O)N[C@H](C(=O)NCC(=O)N[C@@H](CO)C(=O)N[C@@H](CC(N)=O)C(=O)N[C@H](C(=O)N1C[C@H](O)C[C@H]1C(N)=O)[C@@H](C)O)C(C)C)[C@@H](C)O
With B1, in data set [2], the EC50 (luciferase assay, amylin receptor/CRE-luc CHO cells) came out at 0.049 nM and the Relative activity (the EC50 ratio of Cagrilintide to the compound) was found to be 103%.
